Consider 41 compounds from PubChem BioAssay AID624361 (Broad Institute, 2012).

Results filed as inconclusive are left out. Activity calls are given as the source filed them. How the calls were made is not given here.

One assay is described as follows: inhibitors of LMP1-driven NF-kB reporter, dose response, cell-based, EBV LMP1, luciferase, dry powder, set 2 (AID 624361). The settings on record: LMP1-induced NF-kappaB luciferase reporter cells, luminescence; at 30 µM (top of the series). (In a reporter assay the amount or activity of a reporter protein is the signal.)
Regarding `C[C@H](NC(=O)C[C@@H]1C=C[C@H](NC(=O)Cc2ccccn2)[C@H](CO)O1)c1ccccc1`, the activity change, negative = inhibition was -0.706% (inactive).

Staying with this assay, now noted: LMP1-induced NF-kappaB luciferase reporter cells, luminescence; at 35 µM (top of the series).
For the compound `O=C(Cc1ccccn1)NCC[C@H]1CC[C@@H](NC(=O)Nc2ccc(Cl)cc2)[C@@H](CO)O1`, the activity change, negative = inhibition was -0.381% (inactive). Still for that read-out and setting: next, `COC(=O)C[C@@H]1C[C@@H]2c3cc(NC(=O)CN(C)C)ccc3O[C@@H]2[C@@H](CO)O1`: -0.64% (inactive); `C[C@H]1CN([C@@H](C)CO)C(=O)Cc2cc(NC(=O)Cc3ccccc3)ccc2O[C@H]1CN(C)Cc1ccc(C(F)(F)F)cc1`: 11.5% (inactive).

Regarding `CO[C@H]1CN(C)C(=O)c2ccc(NC(=O)C3CC3)cc2OC[C@H](C)N(C(=O)c2ccccn2)C[C@H]1C`, the activity change, negative = inhibition is -14% (inactive). Turning to `C[C@H](CO)N1C[C@H](C)[C@@H](CN(C)Cc2ccc(C(F)(F)F)cc2)Oc2ccc(NC(=O)Cc3ccccc3)cc2CC1=O`, the activity change, negative = inhibition is -11.3% (inactive).

On to `C[C@H](NC(=O)C[C@@H]1C=C[C@@H](NC(=O)Cc2ccccn2)[C@H](CO)O1)c1ccccc1`, for which the activity change, negative = inhibition was -0.475% (inactive). The same measure, in the same setting: next, `O=C(Cc1ccccn1)NCC[C@H]1CC[C@H](NC(=O)Nc2ccc(Cl)cc2)[C@H](CO)O1`: -1.01% (inactive); `Cc1noc(C)c1S(=O)(=O)Nc1ccc2c(c1)C(=O)N([C@H](C)CO)C[C@@H](C)[C@@H](CN(C)Cc1ccc(C(F)(F)F)cc1)OCCCC[C@@H](C)O2`: 1.95% (inactive); `C[C@H](NC(=O)C[C@H]1C=C[C@H](NC(=O)Cc2ccccn2)[C@@H](CO)O1)c1ccccc1`: 3.66% (inactive). Turning to `C[C@@H]1CN([C@@H](C)CO)C(=O)c2c(c3ccccc3n2C)-c2ccccc2CO[C@H]1CN(C)C(=O)Nc1ccc(F)cc1`, the activity change, negative = inhibition is -8.29% (inactive). As to `C[C@H](NC(=O)C[C@H]1C[C@@H]2c3cc(NC(=O)c4cccnc4)ccc3O[C@@H]2[C@@H](CO)O1)c1ccccc1`, the activity change, negative = inhibition is 0.067% (inactive). `C[C@@H](NC(=O)C[C@@H]1C=C[C@H](NC(=O)Cc2ccccn2)[C@H](CO)O1)c1ccccc1`: the activity change, negative = inhibition is -1.52% (inactive). On the same count and under the same terms, next, `C[C@@H]1CN([C@@H](C)CO)C(=O)c2c(c3ccccc3n2C)-c2ccccc2CO[C@@H]1CN(C)C(=O)Nc1ccc(F)cc1`: -5.35% (inactive). Still for that read-out and setting: next, `C[C@H](NC(=O)C[C@H]1C=C[C@@H](NC(=O)Cc2ccccn2)[C@@H](CO)O1)c1ccccc1`: 11% (inactive). As for `O=C(Cc1ccccn1)NCC[C@@H]1CC[C@H](NC(=O)Nc2ccc(Cl)cc2)[C@@H](CO)O1`, the activity change, negative = inhibition is -3.42% (inactive).

Take `C[C@@H](NC(=O)C[C@H]1C=C[C@@H](NC(=O)Cc2ccccn2)[C@@H](CO)O1)c1ccccc1`: the activity change, negative = inhibition was 0.795% (inactive). On the same count and under the same terms, next, `CCC(=O)N1Cc2cc(C(=O)Nc3nccs3)nc(-c3cccc(-c4ccccc4OC)c3)c2[C@H]1CCO`: -7.28% (inactive); `O=C(Cc1ccccn1)NCC[C@@H]1CC[C@H](NC(=O)Nc2ccc(Cl)cc2)[C@H](CO)O1`: -5.88% (inactive); `C[C@@H](NC(=O)C[C@@H]1C=C[C@@H](NC(=O)Cc2ccccn2)[C@@H](CO)O1)c1ccccc1`: 9.33% (inactive).

Take `C[C@@H](NC(=O)C[C@@H]1C=C[C@@H](NC(=O)Cc2ccccn2)[C@H](CO)O1)c1ccccc1`: the activity change, negative = inhibition was 5.05% (inactive). On the same count and under the same terms, next, `COC(=O)C[C@H]1C[C@H]2c3cc(NC(=O)CN(C)C)ccc3O[C@H]2[C@H](CO)O1`: -4.37% (inactive); `C[C@H]1CN([C@@H](C)CO)C(=O)Cc2cc(NC(=O)Cc3ccccc3)ccc2O[C@@H]1CN(C)Cc1ccc(C(F)(F)F)cc1`: -12.8% (inactive). Same read-out and setting: next, `C[C@@H](NC(=O)C[C@H]1C=C[C@H](NC(=O)Cc2ccccn2)[C@H](CO)O1)c1ccccc1`: 9.56% (inactive); `C[C@H](NC(=O)C[C@@H]1C=C[C@H](NC(=O)Cc2ccccn2)[C@@H](CO)O1)c1ccccc1`: -0.999% (inactive); `O=C(Cc1ccccn1)NCC[C@@H]1CC[C@@H](NC(=O)Nc2ccc(Cl)cc2)[C@H](CO)O1`: 10.1% (inactive). Still for that read-out and setting: next, `C/C=C/c1cccc(-c2nc(C(=O)Nc3nccs3)cc3c2[C@@H](CCO)N(C(=O)NC(C)C)C3)c1`: -17% (inactive).

As for `CS(=O)(=O)Nc1ccc2c(c1)[C@@H]1C[C@H](CC(=O)NCC3CC3)O[C@H](CO)[C@@H]1O2`, the activity change, negative = inhibition is -4.41% (inactive). On the same count and under the same terms, next, `CC(C)(C)[S@@](=O)N1Cc2cc(C(=O)NCCc3ccncc3)nc(-c3cccc(-c4cccnc4)c3)c2[C@H]1CCO`: -15% (inactive); `O=C(Cc1ccccn1)NCC[C@H]1CC[C@H](NC(=O)Nc2ccc(Cl)cc2)[C@@H](CO)O1`: -4.61% (inactive); `CO[C@@H]1CN(C)C(=O)c2ccc(NC(C)=O)cc2OC[C@@H](C)N(Cc2ccccc2F)C[C@H]1C`: 0.476% (inactive). Turning to `C[C@H]1CN([C@@H](C)CO)C(=O)c2c(c3ccccc3n2C)-c2ccccc2CO[C@@H]1CN(C)C(=O)Nc1ccc(F)cc1`, the activity change, negative = inhibition was -12.4% (inactive). Consider `C[C@@H](NC(=O)C[C@@H]1C=C[C@H](NC(=O)Cc2ccccn2)[C@@H](CO)O1)c1ccccc1`, for which the activity change, negative = inhibition was 8.29% (inactive). The same measure, in the same setting: next, `C[C@H](NC(=O)C[C@H]1C=C[C@H](NC(=O)Cc2ccccn2)[C@H](CO)O1)c1ccccc1`: 5.47% (inactive); `O=C(Cc1ccccn1)NCC[C@H]1CC[C@@H](NC(=O)Nc2ccc(Cl)cc2)[C@H](CO)O1`: -2.38% (inactive); `O=C(Cc1ccccn1)NCC[C@@H]1CC[C@@H](NC(=O)Nc2ccc(Cl)cc2)[C@@H](CO)O1`: 1.94% (inactive). Same read-out and setting: next, `C[C@H](CO)N1C[C@H](C)[C@H](CN(C)Cc2ccc(C(F)(F)F)cc2)Oc2ccc(NC(=O)Cc3ccccc3)cc2CC1=O`: 4.01% (inactive); `O=C(C[C@H]1C[C@@H]2c3cc(NS(=O)(=O)c4ccc(F)cc4)ccc3O[C@@H]2[C@H](CO)O1)NC1CCCCC1`: -1.53% (inactive). On the same count and under the same terms, next, `C[C@@H]1CN([C@H](C)CO)C(=O)Cc2cc(NC(=O)Cc3ccccc3)ccc2O[C@H]1CN(C)Cc1ccc(C(F)(F)F)cc1`: -9.16% (inactive); `Cc1noc(C)c1S(=O)(=O)Nc1ccc2c(c1)C(=O)N([C@H](C)CO)C[C@H](C)[C@@H](CN(C)Cc1ccc(C(F)(F)F)cc1)OCCCC[C@@H](C)O2`: -11.1% (inactive). As for `COc1ccccc1C(=O)Nc1ccc2c(c1)C(=O)N(C)[C@@H]1CC[C@H](CC(=O)NCCc3ccncc3)O[C@H]1CO2`, the activity change, negative = inhibition was -6.13% (inactive).
